Like-named read-outs stand apart in the source and are kept apart here.
Legend:
Format in all cases: cell-based
[1] = target: T1, Aurora B (Homo sapiens, UniProt Q96GD4); assay: Aurora B cell mechanistic assay (HT-29), phospho-Histone H3 (Ser10) ELISA; settings: HT-29 cell line, inhibition of phospho-Histone H3 (Ser10), at least duplicate experiments (italicized if single); read-out: Aurora B mech IC50
T1 construct: HT-29 cells grown in complete growth media; endogenous in cells; host or cells: HT-29
T1 sequence (Q96GD4 whole entry): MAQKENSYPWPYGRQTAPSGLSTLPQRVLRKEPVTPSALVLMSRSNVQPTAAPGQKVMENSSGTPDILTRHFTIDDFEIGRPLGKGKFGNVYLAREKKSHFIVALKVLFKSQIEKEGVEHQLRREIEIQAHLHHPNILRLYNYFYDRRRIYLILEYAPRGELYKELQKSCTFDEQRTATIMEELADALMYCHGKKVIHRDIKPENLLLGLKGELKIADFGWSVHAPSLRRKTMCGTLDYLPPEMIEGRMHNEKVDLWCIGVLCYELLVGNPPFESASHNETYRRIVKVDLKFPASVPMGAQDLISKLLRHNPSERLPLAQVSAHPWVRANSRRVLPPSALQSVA
Experimental: The cellular activity of the compounds of the present invention against Aurora B may be determined by the following procedure. HT-29 cells grown in complete growth media (McCoy's 5A, 10% FCS, 1% L-glutamine) were plated into wells of a 96 well tissue culture plate (Falcon 3072) at a cell density of 4×10^4 cells/0.09 ml media/well. Cells were subsequently incubated overnight in a 5% CO2 humidified 37° C. incubator. The following day 10 μl of a 10× stock of test compound serially diluted in media was added to the cells and incubated for 1 h at 37° C. at which time Calyculin A (Cell Signaling #9902) was added at a concentration of 100 nM and cells incubated for an additional 30 minutes in a 5% CO2 humidified 37° C. incubator. Media was then aspirated and cells lysed using a Triton based lysis buffer. Lysates were transferred to a pre-coated anti-Histone H3 antibody coated plate supplied by Cell Signaling in their PathScan phospho-Histone H3 (Ser10) ELISA kit (#7155). After an overnight incubation with lysate the ELISA was continued following the manufacturer's instructions. Signal was measured on a Wallac Victor plate reader at 450 nm. DMSO control treated cells served as 100% signal and an Aurora B kinase inhibitor served as 100% inhibition. The percent inhibition of phospho-Histone H3 (Ser10) was expressed as % control. IC50 values were calculated from the percent control data using a standard four-parameter model.
(§1) The IC50 values of exemplary compounds of the present invention determined in a Aurora B cell mechanistic assay using the HT-29 cell line according to the procedures described herein in at least duplicate experiments are abbreviated as follows and are shown in Table 4: A, IC50≦0.03 μM; B, 0.03 μM<IC50≦0.1 μM; C, 0.1 μM<IC50≦1 μM; D, 1 μM<IC50≦3 μM; ND, not determined. If only data from single experiments are available, the abbreviations are italicized. The Example # of Table 4 corresponds to the compound example number as illustrated in the Examples section.

[2] = tested on: Karpas-299 cells; assay: Karpas-299 cell proliferation assay (CellTiter-Glo); settings: Homo sapiens, 72 h; Karpas-299 cell line (NPM-ALK), 3 days incubation, at least duplicate experiments; read-out: Prolif. IC50
Experimental: The effect of inhibitors on the proliferation of Karpas-299 cells (DSMZ no. ACC 31) was determined using the following protocol. Karpas-299 cells were plated in 96-well white tissue culture treated plates (Corning 3917) in growth medium (RPMI, 10% FCS) at a density of 5000 cells/well in a total volume of 135 μL and incubated at 37° C., 5% CO2, 95% humidity overnight. The following day, one-tenth volume of a 10× concentration of compounds was added to the wells in an 8-point dilution series. Compounds were serially diluted (1:4) in DMSO from a 10 mM stock solution prior to dilution in growth media to the 10× working concentrations (5% DMSO). Final concentration of DMSO in compound-treated wells was 0.5%. Control wells containing growth media or growth media/0.5% DMSO were included in all test plates. The typical dilution range is 10 μM to 0.1 nM. Once the compounds were added to the cells, plates were incubated for 3 days at 37° C., 5% CO2 at 95% humidity. After 72 hours, all cells and reagents were equilibrated to room temperature and 15 μL of CellTiter-Glo reagent (Promega #G7573) was added to each well. Plates were shaken on a platform for 10 minutes at room temperature prior to reading luminescence. The value of the signal of the control wells was set as 100% growth and growth inhibition was expressed as percent of control. IC50 values were determined from the percent of control data using a standard four-parameter curve fit equation.
as §1, with “a” for “a Aurora B”, “proliferation” for “mechanistic”, “Karpas-299” for “HT-29”, “5:” for “4:”, “determined.” for “determined. If only data from single experiments are available, the abbreviations are italicized.”, “5” for “4”
The Karpas-299 cell line has a t(2;5) chromosomal translocation and expresses the NPM-ALK fusion protein, resulting in constitutively active ALK. […] Ther. 6(12):3314-22 (2007)]. With this “ALK-driven” cell line by ALK, the cell proliferation IC50 values can thus be used as surrogate for the p-ALK cell mechanistic IC50 values.

[3] = target: T2, RON (Homo sapiens, UniProt Q04912); assay: sfRON cell mechanistic assay (HeLa), phosphorylated RON
T2 construct: expressed in transfected cells; host or cells: HeLa
T2 sequence (Q04912 913-1400 limits assumed): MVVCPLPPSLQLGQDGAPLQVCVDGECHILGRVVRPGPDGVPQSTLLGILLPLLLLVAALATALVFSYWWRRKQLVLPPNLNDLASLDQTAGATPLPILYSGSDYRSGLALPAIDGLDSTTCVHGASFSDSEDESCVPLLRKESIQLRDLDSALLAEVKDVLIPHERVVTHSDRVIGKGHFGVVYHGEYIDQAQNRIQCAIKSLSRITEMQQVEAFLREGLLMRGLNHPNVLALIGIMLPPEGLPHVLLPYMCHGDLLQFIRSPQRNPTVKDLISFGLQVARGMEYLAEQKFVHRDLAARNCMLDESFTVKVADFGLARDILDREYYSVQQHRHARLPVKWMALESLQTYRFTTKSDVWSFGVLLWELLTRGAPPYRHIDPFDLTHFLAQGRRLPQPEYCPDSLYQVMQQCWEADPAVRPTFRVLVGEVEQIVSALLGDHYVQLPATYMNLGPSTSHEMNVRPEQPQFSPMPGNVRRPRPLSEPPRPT
Experimental: The cellular activity of the compounds of the present invention against RON may be determined by the following procedure. HeLa cells were plated in Falcon 3072 96-well plates in growth media (DMEM, 10% FBS, 1% L-glutamine) at a density of 10000 cells/well and incubated at 37° C., 5% CO2 overnight. The following day, cells were transfected with 0.2 μg sfRON-pcDNA plasmid DNA with 0.5 μL Lipofectamine2000 per well in the presence of 50 μL OPTI-MEM, incubated at 37° C., 5% CO2 overnight. Costar 3915 96-well assay plates were coated with rabbit Anti-RON antibody at 2.0 μg/mL, sealed, and incubated overnight at 4° C. On the third day, coated plates were washed with PBS and blocked with 3% BSA. For the sfRON transfected cells, one-tenth volume of a 10× concentration of compounds was added to the wells in a 6-point dilution series. The dilution series was composed of an initial 1:5 dilution of a 10 mM DMSO stock solution of compound in DMSO, followed by a 1:10 dilution in growth media, for a final DMSO concentration on cells of 0.5%. Control wells were treated with 0.5% DMSO. The typical range of dilution was 10 μM to 3 nM. Once compound was added to the cells, plates were incubated for four hours at 37° C., 5% CO2. Plates were then washed in PBS, and lysed in triton-based lysis buffer. Lysates were transferred to the blocked capture plates. The phosphorylated RON levels were measured by incubating with a Goat polyclonal antibody against phosphorylated RON ([pYpY1238/1239]) followed by an anti-Goat antibody conjugated to HRP. Signal was measured on a Wallac Victor plate reader with luminance. The DMSO signal of the control wells was defined as 100% and the percent of inhibition of phosphorylated RON was expressed as percent of control. IC50 values were determined from the percent of control data using a standard four-parameter model.
as §1, with “sfRON” for “Aurora B”, “HeLa” for “HT-29”, “3:” for “4:”, “determined.” for “determined. If only data from single experiments are available, the abbreviations are italicized.”, “3” for “4”

[4] = Table 6: comparison X = C1-3haloalkyl vs. X = C1-3alkyl, read-out: sfRON cell mechanistic

SMILES | IC50 [1] [nM] | IC50 [2] [nM] | IC50 ([3]; sfRON transfected HeLa cells, four hours incubation, inhibition of phosphorylated RON, at least duplicate experiments, read-out: sfRON mech IC50) [nM] | IC50 [3, 4] [nM]
COc1ccc(F)c(Cl)c1[C@H](CF)c1c[nH]c2ncc(-c3cnn([C@H]4CC[C@H](O)CC4)c3)cc12 [Example 2, trans-4-(4-{3-[(1R)-1-(2-chloro-3-fluoro-6-methoxyphenyl)-2-fluoroethyl]-1H-pyrrolo[2,3-b]pyridin-5-yl}-1H-pyrazol-1-yl)cyclohexanol] | 100 to 1000 | 100 to 1000 | 1000 to 3000 | –
CC(c1c(Cl)ccc(F)c1Cl)c1c[nH]c2ncc(-c3cnn(C)c3)cc12 (stereo not drawn) [reference compound] | – | – | – | 1000 to 3000
COc1ccc(F)c(Cl)c1[C@@H](C)c1c[nH]c2ncc(-c3cnn([C@H]4CC[C@H](O)CC4)c3)cc12 [reference compound] | – | – | – | 100 to 1000
C[C@H](c1c(OC(F)F)ccc(F)c1Cl)c1c[nH]c2ncc(-c3cnn([C@H]4CC[C@H](O)CC4)c3)cc12 [reference compound] | – | – | – | 30 to 100

Source: US20140088114A1, “FUSED BICYCLIC KINASE INHIBITORS” (OSI Pharmaceuticals ,LLC, priority 2011, published 2014)
